Patent US20110251230A1, “THERAPEUTICS FOR NEUROLOGICAL DISORDERS” (UNIVERSITY OF SHEFFIELD, priority 2008, published 2011)
Structures can show the parent of a compound that is named as a salt. Where two headings read alike, the source gives them in different places.

Legend:
[1] = system: NRF2-ARE pathway in the CHO 4× ARE-TK cell line; experiment: ARE reporter assay in CHO 4×ARE-TK-GFP cell line (GFP induction, EthD1 toxicity); settings: for maximal fold induction: read-out: Average fold GFP induction at maximal response
Procedure: Chinese Hamster Ovary (CHO), NSC34 mouse motor neuronal cells, C6 (rat) and 1321N1 (human) astrocytic lines were routinely maintained in DMEM supplemented with 10% FBS and penicillin/streptomycin. […] These plasmids were transfected into CHO, C6 and 1321N1 cell lines using Lipofectamine 2000 (Invitrogen) and following 10-14 days of selection in 0.5 mg/ml G418 they were expanded and selected for basal eGFP expression using fluorescence activated cell sorting (BD, FACSAria) with two sequential cell sorts for each cell line. These mixed populations of stable transfectants with basal eGFP expression were used in subsequent assays and designated 4×ARE-TK-GFP for the ARE containing line and TK-GFP for the control cell line. […]
Confluent cultures of 4×ARE-TK-GFP CHO or TK-GFP CHO expressing cells in 96 or 384-well tissue-culture plates were treated with drug (0.01-100 µM in triplicate) or vehicle (0.1-1% DMSO) in FCS-free DMEM in triplicate for 24 hours. The media was removed and replaced with the same volume of PBS containing 0.3 μM EthD1. […] Non-linear regression was used to fit a sigmoidal dose-response curve on a semi-Log plot to calculate the EC50 using GraphPad Prism (GraphPad Software). The reporter assay was conducted in a similar fashion in C6 and 1321N1 astrocyte cell lines stably transfected with the 4×ARE-TK-GFP and TK-GFP constructs except that Eth D1 was added directly in the media and read prior to washing the cells once and reading the […] signal. […]
The compounds were applied in triplicate to confluent cells in 96 well plates in serum free medium for 24 hours and the induction of GFP measured in a fluorescence plate reader. […]

C6 (rat) astrocytic line = experiment: C6 oxidative stress assay (serum withdrawal, DCF); settings: for Lowest dose with toxicity: C6; for IC50: C6, 24 h pre-treatment, serum withdrawal, DCF; for Maximal % reduction in Oxidative stress: C6, DCF fluorescence
Procedure: (§1) A simple oxidative stress assay was used to determine whether preconditioning with NRF2-ARE inducing drugs could protect against a subsequent oxidative stress insult (serum withdrawal). The NSC34, C6 and 1321N1 cells were plated in 96 well tissue culture plates to achieve 30% confluency. […] Media was then replaced with serum free, phenol free media for 5 hrs. […] Cell survival assay was then performed on the cells as protection is measured as % reduction in DCF signal, therefore data points were excluded where a decrease in cell number was measured.
(§2) Briefly methylthiazolyldiphenyl-tetrazolium bromide (MTT) was added to the cells and a blank well to a final concentration 0.5 mg/ml and incubated at 37° C. for 1-3 hrs depending on the cell line used.

[2] = system: NSC34 mouse motor neuronal cells; experiment: NSC34 oxidative stress assay (serum withdrawal, DCF); settings: for Lowest dose with toxicity: NSC34; for Maximal % reduction in Oxidative stress: NSC34, DCF fluorescence, negative = pro-oxidant
Procedure: as §1, §2

[3] = system: 1321N1 (human) astrocytic line; experiment: 1321N1 oxidative stress assay (serum withdrawal, DCF); settings: for Lowest dose with toxicity: 1321N1; for IC50: 1321N1, 24 h pre-treatment, serum withdrawal, DCF; for Maximal % reduction in Oxidative stress: 1321N1, DCF fluorescence
Procedure: as §1, §2

[4] = read-out: Average EC50, CHO 4×ARE-TK-GFP, GFP induction, 24 h
[5] = Cricetulus griseus, 24 h, read-out: Average EC50, CHO 4×ARE-TK-GFP, GFP induction, 24 h

Compound	Lowest dose with toxicity ([1]; CHO ARE reporter assay)	Lowest dose with toxicity (C6 (rat) astrocytic line)	IC50 (C6 (rat) astrocytic line) [µM]	Lowest dose with toxicity [2]	Lowest dose with toxicity [3]	Lowest dose with toxicity ([1]; Chinese hamster, 24 h) [µM]	maximal fold induction ([1]; Cricetulus griseus, 24 h)	also measured
3β hydroxydeoxydesacetoxy-7-oxogedunin	30 µM	none	3.07	3 µM	none			Average fold GFP induction at maximal response ([1]; CHO 4×ARE-TK-GFP, 24 h): 2.55 fold; EC50 [1, 4]: 8.71 µM; Maximal % reduction in Oxidative stress (C6 (rat) astrocytic line): 67%; Maximal % reduction in Oxidative stress [2]: 0%; IC50 [3]: 3.96 µM; Maximal % reduction in Oxidative stress [3]: 62%
OC[C@H]1O[C@@H](n2cnc3c(NCc4ccco4)ncnc32)[C@H](O)[C@@H]1O [kinetin riboside]		10 µM	3.84	3 µM	3 µM	30	1.97	EC50 [1, 5]: 3.39 µM; IC50 [3]: 0.246 µM
CC1=CC(=O)C(C(C)C)=CC1=O [Thymoquinone]		none		none	none	30	2.58	
C=CC(C1=CC(=O)C=CC1=O)c1ccccc1 (stereo not shown) [Dalbergione]		none		none	none	30	2.09	
3-alpha-hydroxygedinin	100 µM		3.22					Average fold GFP induction at maximal response ([1]; CHO 4×ARE-TK-GFP, 24 h): 3.01 fold; Maximal % reduction in Oxidative stress (C6 (rat) astrocytic line): 42%; Maximal % reduction in Oxidative stress [2]: 14%; Maximal % reduction in Oxidative stress [3]: 25%
COC(=O)[C@H](O)[C@H]1C(C)(C)[C@H](OC(C)=O)[C@@H]2CC3=C4CC(=O)O[C@@H](c5ccoc5)[C@]4(C)CC[C@@H]3[C@@]1(C)C2=O [swietenolide 3 acetate]	100 µM	none	4.22	0.3 µM	none			Average fold GFP induction at maximal response ([1]; CHO 4×ARE-TK-GFP, 24 h): 2.82 fold; EC50 [1, 4]: 3.5 µM; Maximal % reduction in Oxidative stress (C6 (rat) astrocytic line): 50%; Maximal % reduction in Oxidative stress [2]: 0%; Maximal % reduction in Oxidative stress [3]: 60%
CC(=O)CCC(=O)O [levulinc acid, Levulinic acid]		none		none	none		2.94	Lowest dose with toxicity [1]: None
COc1cccc(O)c1O [3 methoxycatechol]		10 µM		0.3 µM	none	100	3.28	
O=C(CC[N+](=O)[O-])OC[C@H]1O[C@@H](O)[C@H](OC(=O)CC[N+](=O)[O-])[C@@H](OC(=O)CC[N+](=O)[O-])[C@@H]1OC(=O)CC[N+](=O)[O-] [endecaphyllin X]	None	none	3.15	10 µM	none			Average fold GFP induction at maximal response ([1]; CHO 4×ARE-TK-GFP, 24 h): 2.15 fold; EC50 [1, 4]: 18.8 µM; Maximal % reduction in Oxidative stress (C6 (rat) astrocytic line): 40%; Maximal % reduction in Oxidative stress [2]: 0%; Maximal % reduction in Oxidative stress [3]: 56%
CN1CCc2cccc3c2[C@H]1Cc1ccc(O)c(O)c1-3 [Apomorphine hydrochloride, reference compound]		none		10 µM	none	100	1.9	
CC1=C2C(=CO[C@H](C)[C@H]2C)C(O)=C(C(=O)O)C1=O [Citrinin]	30 µM	none	20	none	none		3.26	EC50 ([1]; Cricetulus griseus, 24 h, read-out: Average EC50): 4.1 µM; IC50 [3]: 0.338 µM
O=C(/C=C/c1ccc(O)cc1)c1ccc(O)cc1O [Isoliquintigenin, Isoliquiritigenin]		none	~28	1 µM	none	30	2.58	
O=C(CCBr)N1CCN(C(=O)CCBr)CC1 [Pipobroman, reference compound]		none		none	10 µM	100	3.21	
CC(=O)O[C@@H]1C[C@H]2C(C)(C)C(=O)C=C[C@]2(C)[C@H]2CC[C@]3(C)C(=CC(=O)O[C@H]3c3ccoc3)[C@@]21C [deoxygedunin]	30 µM	none	2.19	10 µM	10 µM			Average fold GFP induction at maximal response ([1]; CHO 4×ARE-TK-GFP, 24 h): 1.82 fold; EC50 [1, 4]: 1.15 µM; Maximal % reduction in Oxidative stress (C6 (rat) astrocytic line): 61%; Maximal % reduction in Oxidative stress [2]: 7%; IC50 [3]: 1.41 µM; Maximal % reduction in Oxidative stress [3]: 25%
S=C=NCc1ccccc1 [Benzyl Isothiocyanate]	None	none		none	none		1.81	
COc1cc(O)c(C)c(O)c1 [2,6-dihydroxy-4-methoxytoluene]		10 µM		none	none	100	3.05	
O=C(/C=C/c1ccc(O)cc1)c1ccccc1 [4 hydroxychalcone]	None						1.88	EC50 [1, 5]: 3.53 µM
CC(C)(C)c1cc(O)ccc1O [tBHQ, tert-Butyl Hydroquinone, reference compound]								toxicity at concentrations higher than peak expression [1]: signs of toxicity; fluorescence in the control TK-GFP cell line ([1]; control TK-GFP CHO cell line): No increase in fluorescence; concentration of peak ARE activation (GFP expression) ([1]; narrow window, 24 h, serum free medium): 10 µM
CCc1cccc(CC)c1N(COC)C(=O)CCl [Alachlor]		none						
CC(=O)O[C@@H]1CC2C(C)(C)C=CC(=O)[C@]2(C)C2CC[C@@]3(C)[C@H](c4ccoc4)OC(=O)C4OC43[C@@]21C (stereo partly shown) [Isogedunin]	None			1 µM	none			Average fold GFP induction at maximal response ([1]; CHO 4×ARE-TK-GFP, 24 h): 3.11 fold; EC50 [1, 4]: 550 µM; Maximal % reduction in Oxidative stress [2]: 0%; Maximal % reduction in Oxidative stress [3]: 10%
C=C(CC)C(=O)c1ccc(OCC(=O)O)c(Cl)c1Cl [Ethacrynic acid, reference compound]			3.01	10 µM		100		
